For the assay, the target named is recombinant human PDE-10 enzyme (human PDE-10A) (Homo sapiens (Human), UniProt Q9Y233). The assay is described as follows: human PDE-10 inhibition assay (Molecular Devices IMAP PDE Fluorescence Polarization, enzyme assay IC50). Format: biochemical. The following applies: Fluorescein-labeled cAMP/cGMP substrate, 40-minute incubation at 37° C. The method, then: In one embodiment, the compounds provided herein were assayed for their ability to inhibit human PDE-10A. In one embodiment, the activities of the compounds were determined using the Molecular Devices IMAP PDE Fluorescence Polarization assay using recombinant human PDE-10 enzyme expressed in a baculoviral system. Briefly, 10 μL of a compound (0.2 nM-20 μM) was added to either a 96-well half area black plate or a 384-well black plate along with 10 μL of Fluorescein-labeled cAMP/cGMP substrate as per manufacturer's instructions and 10 μL of PDE enzyme (activity 0.1 U). Following a 40-minute incubation at 37° C., 60 μL of IMAP binding reagent was added. The plate was then read on a Perkin Elmer Victor (480-535 nm). The data was analyzed using Prism Software (GraphPad Inc, San Diego, Calif.).
recombinant human PDE-10 enzyme (human PDE-10A), sequence (Q9Y233 whole entry): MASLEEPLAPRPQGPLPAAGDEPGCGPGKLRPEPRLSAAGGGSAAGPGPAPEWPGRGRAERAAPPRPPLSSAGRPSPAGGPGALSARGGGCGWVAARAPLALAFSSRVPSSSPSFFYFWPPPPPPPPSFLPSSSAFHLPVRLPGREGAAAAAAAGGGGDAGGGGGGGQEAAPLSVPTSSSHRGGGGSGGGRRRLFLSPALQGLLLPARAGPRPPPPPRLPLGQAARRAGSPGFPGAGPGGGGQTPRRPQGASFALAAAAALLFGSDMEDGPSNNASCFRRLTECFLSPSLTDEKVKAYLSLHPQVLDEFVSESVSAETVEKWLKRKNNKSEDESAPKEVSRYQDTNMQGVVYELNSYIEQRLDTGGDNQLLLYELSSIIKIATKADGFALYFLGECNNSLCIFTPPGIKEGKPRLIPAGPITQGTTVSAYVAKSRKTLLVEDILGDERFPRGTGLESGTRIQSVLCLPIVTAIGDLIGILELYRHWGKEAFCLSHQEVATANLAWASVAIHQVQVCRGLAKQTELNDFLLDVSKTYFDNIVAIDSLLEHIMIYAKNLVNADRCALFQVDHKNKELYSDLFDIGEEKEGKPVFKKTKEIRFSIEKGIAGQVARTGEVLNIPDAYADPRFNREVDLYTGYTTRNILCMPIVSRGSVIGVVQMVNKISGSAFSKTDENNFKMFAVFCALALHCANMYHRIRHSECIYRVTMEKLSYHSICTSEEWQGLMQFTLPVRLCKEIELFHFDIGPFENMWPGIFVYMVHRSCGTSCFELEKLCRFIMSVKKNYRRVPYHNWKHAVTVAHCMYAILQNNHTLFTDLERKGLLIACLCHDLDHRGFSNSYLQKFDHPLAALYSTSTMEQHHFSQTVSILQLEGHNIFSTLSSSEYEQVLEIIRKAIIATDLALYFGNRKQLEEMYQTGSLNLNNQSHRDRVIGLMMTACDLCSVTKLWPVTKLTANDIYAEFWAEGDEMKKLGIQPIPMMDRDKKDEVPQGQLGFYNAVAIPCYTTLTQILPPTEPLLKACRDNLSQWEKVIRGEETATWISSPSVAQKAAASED
Background: Polarisation of emitted light reports the rotation of a fluorescent probe.

Each structure is given as a SMILES string.

What is called IC50 is the concentration that gives 50% inhibition.

With `Cc1ccn2c(C)c(C3CC3c3cn4ccc(F)cc4n3)nc2c1` (stereo not shown) [Compound 7, 2-(2-(7-Fluoroimidazo[1,2-a]pyridin-2-yl)cyclopropyl)-3,7-dimethylimidazo[1,2-a]pyridine], the IC50 is more than 500 nM.

`Cc1cccn2cc(C3CC3c3cn4cccc(C)c4n3)nc12` (stereo not shown) [Compound 8, 1,2-Bis(8-methylimidazo[1,2-a]pyridin-2-yl)cyclopropane]: the IC50 is more than 500 nM.

For the compound `Fc1ccn2cc(C3CC3c3cn4ccc(F)cc4n3)nc2c1` (stereo not shown) [Compound 9], the concentration for half-maximal inhibition (IC50) is more than 500 nM.

As for `Fc1cccn2cc(C3CC3c3cn4cccc(F)c4n3)nc12` (stereo not shown) [Compound 10], the IC50 was more than 500 nM.

On to `Clc1cccn2cc(C3CC3c3cn4cccc(Cl)c4n3)nc12` (stereo not shown) [Compound 11], for which the IC50 was more than 500 nM.

Turning to `Cc1ccn2cc(C3CC3c3nc4c(C)ncc(C)n4n3)nc2c1` (stereo not shown) [Compound 12, 5,8-Dimethyl-2-(2-(7-methylimidazo[1,2-a]pyridin-2-yl)cyclopropyl)-[1,2,4]triazolo[1,5-a]pyrazine], the IC50 was more than 500 nM.

With `COc1ccn2c(C)c(C3CC3c3nc4c(C)ncc(C)n4n3)nc2c1` (stereo not shown) [Compound 13], the IC50 lay within 100 to 500 nM.

Take `CCOc1ccn2c(C)c(C3CC3c3nc4c(C)ncc(C)n4n3)nc2c1` (stereo not shown) [Compound 14]: the IC50 is more than 500 nM.

Turning to `COc1cccn2c(C)c(C3CC3c3nc4c(C)ncc(C)n4n3)nc12` (stereo not shown) [Compound 15], the half-maximal inhibitory concentration (IC50) was 10 to 100 nM.

With `COc1ccn2cc(C3CC3c3nc4c(C)ncc(C)n4n3)nc2c1` (stereo not shown) [Compound 16], the IC50 was more than 500 nM.

Turning to `CCOc1cccn2cc(C3CC3c3nc4c(C)ncc(C)n4n3)nc12` (stereo not shown) [Compound 17], the concentration for half-maximal inhibition (IC50) was 10 to 100 nM.

Consider `Cc1cc2nc(C3CC3c3nc4c(C)ncc(C)n4n3)cn2cc1F` (stereo not shown) [Compound 18], for which the 50% inhibitory concentration (IC50) is more than 500 nM.

With `Cc1ncc(C)n2nc(C3CC3c3nc(-c4ccccc4)cn3C)nc12` (stereo not shown) [Compound 19, 5,8-Dimethyl-2-(2-(1-methyl-4-phenyl-1H-imidazol-2-yl)cyclopropyl)-[1,2,4]triazolo[1,5-a]pyrazine], the IC50 lay in the range of 10 to 100 nM.

In the case of `Cn1c(C2CC2c2ccc3ccccc3n2)nc2c3cccnc3ccc21` (stereo not shown) [Compound 20, 3-Methyl-2-(2-(quinolin-2-yl)cyclopropyl)-3H-imidazo[4,5-f]quinoline], the IC50 was 100 to 500 nM.

`Clc1cccn2cc(C3CCC3c3cn4cccc(Cl)c4n3)nc12` (stereo not shown) [Compound 23, 1,2-Bis(8-chloroimidazo[1,2-a]pyridin-2-yl)cyclobutane]: the half-inhibitory concentration (IC50) lay within 100 to 500 nM.

With `Fc1ccn2cc(C3CCC3c3cn4cccc(Cl)c4n3)nc2c1` (stereo not shown) [Compound 24, 8-Chloro-2-(2-(7-fluoroimidazo[1,2-a]pyridin-2-yl)cyclobutyl)imidazo[1,2-a]pyridine], the IC50 was more than 500 nM.

For the compound `Cn1c(C2CCC2c2nc3c4cccnc4ccc3n2C)nc2c3cccnc3ccc21` (stereo not shown) [Compound 25, 1,2-Bis(3-methyl-3H-imidazo[4,5-f]quinolin-2-yl)cyclobutane], the concentration for half-maximal inhibition (IC50) was more than 500 nM.

In the case of `Cc1ncc(C)n2nc([C@H]3C[C@@H]3c3nc4c5cccnc5ccc4n3C)nc12` [Compound 28], the IC50 was in the range of 100 to 500 nM.

Consider `Cc1ncc(C)n2nc([C@@H]3C[C@H]3c3nc4c5cccnc5ccc4n3C)nc12` [Compound 29], for which the IC50 is not above 10 nM.
